According to US8486863B2, “Activators of lateral root formation” (VIB VZW, priority 2006, dated 2013):

How the values were obtained:
auxin signaling mutants = assay: Effect of activators on lateral root density of auxin signaling mutants (Table 2); format: in vivo, Arabidopsis thaliana
Source text: Afb1, Afb2, Afb3 and the triple mutant Tirlafb2afb3 were described by Dhamasiri et al. (2005). Tir1 was described by Ruegger et al., (1998); 1aa28 by Rogg et al., (2001); Tir7-1 by Ruegger et al., (1997); the Cyp79b2b3 double mutant by Ljung et al. (2005); the arf7arf19 double mutant by Fukaki et al., (2005); Aux1 by Bennett et al., (1996); Xbat32 by Nodzon et al., (2004), Axr1-12 by Timpte et al., (1995), Slr1 by Fukaki et al., 2002 and Axr3-1 by Collet et al., (2000) and the mutants were obtained from the publishing authors.
For phenotypic analysis, all mutants were grown on vertically oriented square plates (Greiner Labortechnik, Austria) with solid medium derived from standard MS medium. The plates were put in a growth chamber under continuous light (110 μE.m2.s1 photosynthetically active radiation, supplied by cool-white fluorescent tungsten tubes; Osram) at 22° C. Three days after germination, the mutant plants were transferred to medium supplemented with compounds and were left to grow for another 7 days. After this, root length and number of lateral roots were counted using ImageJ 1.34 freeware.

[1] = test system: Wild-type Arabidopsis thaliana; assay: Dose-response analysis of lateral root density and root length; format: in vivo; conditions: structural variants, FIG. 6-8
Procedure: FIG. 3: Dose-response analysis of class 1 (upper panel) and class 2 (lower panel) activators. Wild-type Arabidopsis thaliana seeds were germinated under standard conditions on agar plates. After 3 days of germination, seedlings were transferred to agar plates containing compound at different concentrations. Lateral root density was measured 10 days after germination. Bars represent standard errors.
FIG. 4: Dose-response analysis of A2, A11, A12, A14 and NAA. Wild-type Arabidopsis thaliana seeds were germinated under standard conditions on agar plates. After 3 days of germination, seedlings were transferred to agar plates containing compound at different concentrations and 1% DMSO. Plants transferred to agar plates containing 1% DMSO and no compound were used as controls. Lateral root density (left panels) and root length (right panels) were measured 10 days after germination. Bars represent standard errors.
For further phenotypic analysis, all plants were grown on vertically oriented square plates (Greiner Labortechnik, Austria) with solid medium derived from standard MS medium under the same conditions. 3 DAG plants were transferred to medium supplemented with compounds and were left to grow for another 7 days. After this, root length and number of LRs were counted using ImageJ 1.34 freeware.
As a subsequent step, the phenotypic effect of the 16 selected activators was determined in a dose-response analysis in which LR density (number of LRs per cm) was quantified (FIG. 3). Based upon potency and structure, two different classes of activators could be identified.

Row | Structure (SMILES) | lateral root density (auxin signaling mutants; Afb1-1, 3 uM) | lateral root density (auxin signaling mutants; Afb2-1, 3 uM) | lateral root density (auxin signaling mutants; Afb3-1, 3 uM) | lateral root density (auxin signaling mutants; Arf7Arf19, 3 uM) | lateral root density (auxin signaling mutants; Arf16, 3 uM) | lateral root density (auxin signaling mutants; Arf17, 3 uM) | lateral root density (auxin signaling mutants; Axrt-12, 3 uM) | lateral root density (auxin signaling mutants; Cyp79, 3 uM) | lateral root density (auxin signaling mutants; Iaa28-1, 3 uM) | lateral root density (auxin signaling mutants; Tir1-1, 3 uM) | lateral root density (auxin signaling mutants; Tir7-1, 3 uM) | lateral root density (auxin signaling mutants; TirTM, 3 uM) | lateral root density (auxin signaling mutants; Xbat32, 3 uM) | other results
1 | Nc1ncc(Cc2cccc(Cl)c2Cl)s1 [A3, 5-(2,3-dichlorobenzyl)-1,3-thiazol-2-amine] | 17.77 LR/cm | 19.58 LR/cm | 17.45 LR/cm | 33.59 LR/cm | 11.32 LR/cm | 13.31 LR/cm | 15.77 LR/cm | 21.24 LR/cm | 13.96 LR/cm | 11.91 LR/cm | 26.15 LR/cm | 10.88 LR/cm | 13.07 LR/cm | –
2 | O=C(NN=Cc1cccc(Cl)c1Cl)c1ccc(O)c(O)c1 [A6, N′-(2,3-dichlorobenzylidene)-3,4-dihydroxybenzohydrazide] | 10.89 LR/cm | 7.34 LR/cm | 14.40 LR/cm | 0.00 LR/cm | 6.67 LR/cm | 7.24 LR/cm | 4.78 LR/cm | 31.92 LR/cm | 0.00 LR/cm | 0.57 LR/cm | 11.42 LR/cm | 0.00 LR/cm | 10.08 LR/cm | –
3 | Cc1ccccc1OCC(=O)NN=Cc1ccc(C(=O)O)cc1 [A9, 4-{2-[(2-methylphenoxy)acetyl]carbonohydrazonoyl}benzoic acid] | – | – | – | – | – | – | – | – | – | – | – | – | – | lateral root density (auxin signaling mutants; Afb1-1, 30 uM): 13.57 LR/cm; lateral root density (auxin signaling mutants; Afb2-1, 30 uM): 11.19 LR/cm; lateral root density (auxin signaling mutants; Afb3-1, 30 uM): 16.77 LR/cm; lateral root density (auxin signaling mutants; Arf7Arf19, 30 uM): 0.25 LR/cm; lateral root density (auxin signaling mutants; Arf16, 30 uM): 6.67 LR/cm; lateral root density (auxin signaling mutants; Arf17, 30 uM): 12.86 LR/cm; lateral root density (auxin signaling mutants; Axrt-12, 30 uM): 6.09 LR/cm; lateral root density (auxin signaling mutants; Cyp79, 30 uM): 13.29 LR/cm; lateral root density (auxin signaling mutants; Iaa28-1, 30 uM): 12.33 LR/cm; lateral root density (auxin signaling mutants; Tir1-1, 30 uM): 3.29 LR/cm; lateral root density (auxin signaling mutants; Tir7-1, 30 uM): 17.91 LR/cm; lateral root density (auxin signaling mutants; TirTM, 30 uM): 0.00 LR/cm; lateral root density (auxin signaling mutants; Xbat32, 30 uM): 8.43 LR/cm
4 | O=Cc1ccc(-c2cccc(C(F)(F)F)c2)o1 [A11var5] | – | – | – | – | – | – | – | – | – | – | – | – | – | effect on LR formation (LR density), structure-activity analysis [1]: minimal substructure required to induce LR formation
5 | Cc1c(N=Cc2cccc(Cl)c2Cl)cccc1[N+](=O)[O-] [A7, (2,3-dichlorobenzylidene)(2-methyl-3-nitrophenyl)amine] | 9.46 LR/cm | 2.69 LR/cm | 17.43 LR/cm | 0.00 LR/cm | 2.71 LR/cm | 3.40 LR/cm | 2.02 LR/cm | 19.35 LR/cm | 0.00 LR/cm | 1.01 LR/cm | 5.73 LR/cm | 0.00 LR/cm | 1.23 LR/cm | –
6 | Clc1cccc(C=Nc2ccc(N3CCOCC3)cc2)c1Cl [A4, (2,3-dichlorobenzylidene)[4-(4-morpholinyl)phenyl]amine] | 2.69 LR/cm | 2.16 LR/cm | 2.55 LR/cm | 0.00 LR/cm | 1.99 LR/cm | 1.87 LR/cm | 1.64 LR/cm | 2.64 LR/cm | 0.00 LR/cm | 0.89 LR/cm | 3.69 LR/cm | 0.00 LR/cm | 0.91 LR/cm | –
